In the experiment the target is T1, PDZD7 PDZ1ext (81-192) (Mus musculus, UniProt E9Q9W7).
T1 construct: PDZ1 (81-167), PDZ1ext (81-192); GST (followed by TEV site) (N, cleaved yes); made in house; host or cells: E. coli BL21 DE3
T1 sequence (E9Q9W7 81-192): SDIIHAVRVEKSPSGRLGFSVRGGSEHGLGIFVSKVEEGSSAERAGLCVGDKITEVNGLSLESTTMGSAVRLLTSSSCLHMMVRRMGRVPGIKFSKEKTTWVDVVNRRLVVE
Kind of experiment: NMR titration of PDZ1ext with ADGRV1 ligands. The experiment is classed as binding, murine. As to conditions: NMR titration (1H-15N HSQC CSP), Tris HCl pH 7.5 (50 mM), 25°C; SD of Kd over at least ten shifting peaks; read-out: Kd. The procedure:
All experiments were recorded at 25°C on a Bruker 800 MHz spectrometer equipped with a triple resonance ^1H{^13C/^15N} cryoprobe. The ^1H, ^15 N and ^13C backbone resonances assignment of PDZ1ext was carried out using 3D HNCA, HNCACB, HNCO, HNCOCA experiments (Tris HCl buffer adjusted to pH 6). The 2D ^1H-^15N HSQC spectra used to compare PDZ1, PDZ1ext, PDZ2 and PDZ2ext were recorded in Tris HCl pH 7.5 (50 mM). The 2D ^1H-^15N HSQC spectra used to compare PDZ1ext, PDZ2ext and P1P2 were recorded in Phosphate Buffer pH 6.5 (50 mM). Titration experiments of PDZ1 (WT), PDZ1ext (WT) and PDZ1ext (G103R) against ADGRV1pbm peptide were performed in Tris HCl pH 7.5 (50 mM). Averaged Chemical Shifts Perturbations (CSP) were calculated as: Δδavg = ((Δδ(^1H))^2+(Δδ(^15N)*0.159)^2)^½. […]
We monitored the interaction between PDZD7 constructs and a peptide (ADGRV1pbm) corresponding to the last 13 residues of ADGRV1, encompassing its PBM (sequence VELRRIPIADTHL-COOH; PBM underlined). We measured apparent Kd values of our constructs towards ADGRV1pbm using several biophysical methods (NMR, fluorescence, MicroScale Thermophoresis (MST)) (Table 1; Supplementary Figure S3–S5). […]

In article PMC9274004, “Deciphering the Molecular Interaction Between the Adhesion G Protein-Coupled Receptor ADGRV1 and its PDZ-Containing Regulator PDZD7” (Frontiers in Molecular Biosciences, 2022) one finds Kd data, which are given here for one sequence.

Where no end group is shown, it is not given here.

As usually defined, the Kd is a measure of binding affinity in units of concentration. VELRRIPIADTHL [ADGRV1pbm]: the Kd is 47 ± 6 µM.
